Columns and labels:
[1] = molecular target: T1, PIK3CA (Homo sapiens, UniProt P42336); test: KINOMEscan; format: binding; conditions: read-out: %Ctrl @ 1000 nM
T1 construct: purchased DiscoveRx KINOMEscan

[2] = molecular target: T2, PKN1 (Homo sapiens, UniProt Q16512); test: KINOMEscan; format: binding; conditions: read-out: %Ctrl @ 1000 nM
T2 construct: purchased DiscoveRx KINOMEscan

[3] = molecular target: T3, EPHA6 (Homo sapiens, UniProt Q9UF33); test: KINOMEscan; format: binding; conditions: read-out: %Ctrl @ 1000 nM
T3 construct: purchased DiscoveRx KINOMEscan
T3 sequence (Q9UF33 23-1036): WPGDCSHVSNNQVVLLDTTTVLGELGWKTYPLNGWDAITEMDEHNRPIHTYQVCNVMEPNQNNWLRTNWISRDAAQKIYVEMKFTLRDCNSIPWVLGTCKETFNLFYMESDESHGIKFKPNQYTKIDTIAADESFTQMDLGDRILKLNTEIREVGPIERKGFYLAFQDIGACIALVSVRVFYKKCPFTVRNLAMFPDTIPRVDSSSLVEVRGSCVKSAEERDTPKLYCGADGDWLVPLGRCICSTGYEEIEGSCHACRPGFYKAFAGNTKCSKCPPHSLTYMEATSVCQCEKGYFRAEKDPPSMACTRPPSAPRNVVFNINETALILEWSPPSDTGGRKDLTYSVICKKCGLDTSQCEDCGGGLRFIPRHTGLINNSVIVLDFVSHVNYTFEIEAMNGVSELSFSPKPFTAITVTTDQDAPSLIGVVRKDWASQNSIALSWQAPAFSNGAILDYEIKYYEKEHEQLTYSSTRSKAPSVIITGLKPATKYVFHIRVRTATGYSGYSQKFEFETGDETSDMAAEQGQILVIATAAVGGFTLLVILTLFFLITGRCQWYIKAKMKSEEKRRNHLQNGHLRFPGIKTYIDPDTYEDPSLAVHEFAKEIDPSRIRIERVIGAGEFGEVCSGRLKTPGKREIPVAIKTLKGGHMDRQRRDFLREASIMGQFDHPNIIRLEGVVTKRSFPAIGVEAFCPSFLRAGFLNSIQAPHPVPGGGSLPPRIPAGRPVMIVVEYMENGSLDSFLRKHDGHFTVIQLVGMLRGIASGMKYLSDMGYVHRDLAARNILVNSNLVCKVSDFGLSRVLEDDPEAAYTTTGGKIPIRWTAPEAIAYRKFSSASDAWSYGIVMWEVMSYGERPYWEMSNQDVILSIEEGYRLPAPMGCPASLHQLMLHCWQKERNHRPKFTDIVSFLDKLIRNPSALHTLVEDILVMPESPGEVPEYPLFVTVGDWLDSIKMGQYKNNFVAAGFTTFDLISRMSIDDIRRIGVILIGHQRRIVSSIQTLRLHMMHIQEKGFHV

[4] = molecular target: T4, BMPR2 (Homo sapiens, UniProt Q13873); test: KINOMEscan; format: binding; conditions: read-out: %Ctrl @ 1000 nM
T4 construct: purchased DiscoveRx KINOMEscan
T4 sequence (Q13873 27-1038): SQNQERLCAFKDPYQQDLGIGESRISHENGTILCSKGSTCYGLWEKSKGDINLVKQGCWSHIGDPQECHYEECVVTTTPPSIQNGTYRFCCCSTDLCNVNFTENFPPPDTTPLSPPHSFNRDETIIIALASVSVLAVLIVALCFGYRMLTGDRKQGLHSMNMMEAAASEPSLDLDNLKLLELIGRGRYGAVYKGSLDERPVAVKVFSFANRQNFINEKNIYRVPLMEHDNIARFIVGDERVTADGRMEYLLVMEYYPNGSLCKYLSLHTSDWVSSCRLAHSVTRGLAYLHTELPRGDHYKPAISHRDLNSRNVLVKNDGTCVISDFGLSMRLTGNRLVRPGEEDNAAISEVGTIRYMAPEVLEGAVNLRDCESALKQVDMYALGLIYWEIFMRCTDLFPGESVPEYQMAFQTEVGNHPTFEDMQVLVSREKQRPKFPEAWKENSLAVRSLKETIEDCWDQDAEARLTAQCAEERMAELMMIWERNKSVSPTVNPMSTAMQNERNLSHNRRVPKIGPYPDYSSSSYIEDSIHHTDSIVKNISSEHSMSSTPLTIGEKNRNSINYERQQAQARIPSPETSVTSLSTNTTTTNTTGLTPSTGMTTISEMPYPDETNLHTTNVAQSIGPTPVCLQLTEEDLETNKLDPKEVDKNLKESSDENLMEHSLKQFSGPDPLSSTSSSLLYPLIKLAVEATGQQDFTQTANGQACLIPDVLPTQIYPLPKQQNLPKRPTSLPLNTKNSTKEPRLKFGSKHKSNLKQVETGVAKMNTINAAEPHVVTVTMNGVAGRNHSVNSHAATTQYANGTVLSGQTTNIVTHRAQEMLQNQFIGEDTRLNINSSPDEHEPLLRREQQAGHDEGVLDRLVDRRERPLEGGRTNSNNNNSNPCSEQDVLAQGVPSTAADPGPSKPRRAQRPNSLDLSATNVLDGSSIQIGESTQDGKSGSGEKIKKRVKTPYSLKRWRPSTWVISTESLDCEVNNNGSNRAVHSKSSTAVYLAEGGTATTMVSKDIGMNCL

[5] = molecular target: T5, PLK2 (Homo sapiens, UniProt Q9NYY3); test: KINOMEscan; format: binding; conditions: read-out: %Ctrl @ 1000 nM
T5 construct: purchased DiscoveRx KINOMEscan
T5 sequence (Q9NYY3 whole entry): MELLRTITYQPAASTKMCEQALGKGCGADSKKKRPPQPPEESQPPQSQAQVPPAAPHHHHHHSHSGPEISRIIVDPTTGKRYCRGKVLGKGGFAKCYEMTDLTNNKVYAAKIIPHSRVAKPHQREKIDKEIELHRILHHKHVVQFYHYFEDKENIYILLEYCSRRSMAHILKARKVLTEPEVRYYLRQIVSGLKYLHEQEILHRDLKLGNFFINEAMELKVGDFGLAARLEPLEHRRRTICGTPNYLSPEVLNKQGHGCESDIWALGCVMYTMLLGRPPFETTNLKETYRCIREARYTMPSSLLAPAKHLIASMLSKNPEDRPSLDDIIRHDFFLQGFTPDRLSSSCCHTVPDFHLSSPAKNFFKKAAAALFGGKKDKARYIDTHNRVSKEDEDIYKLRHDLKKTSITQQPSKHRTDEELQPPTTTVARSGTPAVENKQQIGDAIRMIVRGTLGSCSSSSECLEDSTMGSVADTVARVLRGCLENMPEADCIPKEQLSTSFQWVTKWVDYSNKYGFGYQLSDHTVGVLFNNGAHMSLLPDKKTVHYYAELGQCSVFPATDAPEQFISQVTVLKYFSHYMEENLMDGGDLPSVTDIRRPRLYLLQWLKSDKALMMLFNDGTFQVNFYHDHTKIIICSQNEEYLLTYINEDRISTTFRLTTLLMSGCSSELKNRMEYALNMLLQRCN

[6] = molecular target: T6, MRCKA (Homo sapiens, UniProt Q5VT25); test: KINOMEscan; format: binding; conditions: read-out: %Ctrl @ 1000 nM
T6 construct: purchased DiscoveRx KINOMEscan

[7] = molecular target: T7, CSNK2A1 (Homo sapiens, UniProt P68400); test: KINOMEscan; format: binding; conditions: read-out: %Ctrl @ 1000 nM
T7 construct: purchased DiscoveRx KINOMEscan

[8] = molecular target: T8, BRSK1 (Homo sapiens, UniProt Q8TDC3); test: KINOMEscan; format: binding; conditions: read-out: %Ctrl @ 1000 nM
T8 construct: purchased DiscoveRx KINOMEscan

[9] = molecular target: T9, MAP3K15 (Homo sapiens, UniProt Q6ZN16); test: KINOMEscan; format: binding; conditions: read-out: %Ctrl @ 1000 nM
T9 construct: purchased DiscoveRx KINOMEscan

[10] = molecular target: T10, ABL1(Q252H)-phosphorylated (Homo sapiens, UniProt P00519, Q252H); test: KINOMEscan; format: binding; conditions: read-out: %Ctrl @ 1000 nM
T10 construct: purchased DiscoveRx (KINOMEscan service)

[11] = molecular target: T11, CAMK4 (Homo sapiens, UniProt Q16566); test: KINOMEscan; format: binding; conditions: read-out: %Ctrl @ 1000 nM
T11 construct: purchased DiscoveRx KINOMEscan

[12] = molecular target: T12, ULK3 (Homo sapiens, UniProt Q6PHR2); test: KINOMEscan; format: binding; conditions: read-out: %Ctrl @ 1000 nM
T12 construct: purchased DiscoveRx KINOMEscan

[13] = molecular target: T13, RAF1 (Homo sapiens, UniProt P04049); test: KINOMEscan; format: binding; conditions: read-out: %Ctrl @ 1000 nM
T13 construct: purchased DiscoveRx KINOMEscan

[14] = molecular target: T14, ABL1(M351T)-phosphorylated (Homo sapiens, UniProt P00519, M351T); test: KINOMEscan; format: binding; conditions: read-out: %Ctrl @ 1000 nM
T14 construct: purchased DiscoveRx (KINOMEscan service)

[15] = molecular target: T15, CDK5 (Homo sapiens, UniProt Q00535); test: KINOMEscan; format: binding; conditions: read-out: %Ctrl @ 1000 nM
T15 construct: purchased DiscoveRx KINOMEscan

[16] = molecular target: SMYD2 (Homo sapiens, UniProt Q9NRG4); test: Endogenous p53 methylation in KYSE-150 cells (Western blot); conditions: 5 days
[17] = molecular target: T16, ERK4 (Homo sapiens, UniProt P31152); test: KINOMEscan; format: binding; conditions: read-out: %Ctrl @ 1000 nM
T16 construct: purchased DiscoveRx KINOMEscan
T16 sequence (P31152 whole entry): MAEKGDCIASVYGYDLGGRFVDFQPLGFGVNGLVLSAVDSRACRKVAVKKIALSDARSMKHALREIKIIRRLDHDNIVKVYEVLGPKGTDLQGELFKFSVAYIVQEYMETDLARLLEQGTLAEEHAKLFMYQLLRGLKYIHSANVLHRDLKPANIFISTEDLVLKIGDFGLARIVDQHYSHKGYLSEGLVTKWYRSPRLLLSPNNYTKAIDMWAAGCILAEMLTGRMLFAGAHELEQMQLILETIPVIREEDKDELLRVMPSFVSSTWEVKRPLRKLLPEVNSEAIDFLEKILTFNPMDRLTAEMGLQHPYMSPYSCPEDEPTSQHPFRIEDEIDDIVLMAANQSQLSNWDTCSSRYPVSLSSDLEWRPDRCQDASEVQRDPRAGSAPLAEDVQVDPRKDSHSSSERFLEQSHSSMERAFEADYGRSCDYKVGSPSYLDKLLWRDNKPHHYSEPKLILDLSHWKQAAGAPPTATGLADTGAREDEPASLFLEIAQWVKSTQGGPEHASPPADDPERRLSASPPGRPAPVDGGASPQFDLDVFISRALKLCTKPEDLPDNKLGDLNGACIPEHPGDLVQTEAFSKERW

[18] = molecular target: T17, CLK1 (Homo sapiens, UniProt P49759); test: KINOMEscan; format: binding; conditions: read-out: %Ctrl @ 1000 nM
T17 construct: purchased DiscoveRx KINOMEscan

[19] = molecular target: T18, MAPKAPK5 (Homo sapiens, UniProt Q8IW41); test: KINOMEscan; format: binding; conditions: read-out: %Ctrl @ 1000 nM
T18 construct: purchased DiscoveRx KINOMEscan

[20] = molecular target: T19, RSK1(Kin.Dom.1-N-terminal) (Homo sapiens, UniProt Q15418); test: KINOMEscan; format: binding; conditions: read-out: %Ctrl @ 1000 nM
T19 construct: RSK1(Kin.Dom.1-N-terminal); purchased DiscoveRx KINOMEscan

[21] = molecular target: T20, WEE1 (Homo sapiens, UniProt P30291); test: KINOMEscan; format: binding; conditions: read-out: %Ctrl @ 1000 nM
T20 construct: purchased DiscoveRx KINOMEscan

[22] = molecular target: T21, ERK1 (Homo sapiens, UniProt P27361); test: KINOMEscan; format: binding; conditions: read-out: %Ctrl @ 1000 nM
T21 construct: purchased DiscoveRx KINOMEscan

[23] = molecular target: T22, MEK1 (Homo sapiens, UniProt Q02750); test: KINOMEscan; format: binding; conditions: read-out: %Ctrl @ 1000 nM
T22 construct: purchased DiscoveRx KINOMEscan
T22 sequence (Q02750 whole entry): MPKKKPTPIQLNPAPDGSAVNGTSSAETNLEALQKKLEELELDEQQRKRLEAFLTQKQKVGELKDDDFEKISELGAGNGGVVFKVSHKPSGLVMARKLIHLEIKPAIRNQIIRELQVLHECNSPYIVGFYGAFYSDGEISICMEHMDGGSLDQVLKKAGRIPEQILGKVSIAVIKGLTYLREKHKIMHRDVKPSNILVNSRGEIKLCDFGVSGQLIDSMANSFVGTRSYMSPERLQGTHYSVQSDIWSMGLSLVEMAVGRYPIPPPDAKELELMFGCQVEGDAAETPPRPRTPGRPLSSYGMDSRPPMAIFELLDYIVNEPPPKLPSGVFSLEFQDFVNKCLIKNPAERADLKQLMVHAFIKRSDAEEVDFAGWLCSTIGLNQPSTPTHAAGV

[24] = molecular target: T23, EIF2AK1 (Homo sapiens, UniProt Q9BQI3); test: KINOMEscan; format: binding; conditions: read-out: %Ctrl @ 1000 nM
T23 construct: purchased DiscoveRx KINOMEscan

[25] = molecular target: T24, RIPK2 (Homo sapiens, UniProt O43353); test: KINOMEscan; format: binding; conditions: read-out: %Ctrl @ 1000 nM
T24 construct: purchased DiscoveRx KINOMEscan
T24 sequence (O43353 whole entry): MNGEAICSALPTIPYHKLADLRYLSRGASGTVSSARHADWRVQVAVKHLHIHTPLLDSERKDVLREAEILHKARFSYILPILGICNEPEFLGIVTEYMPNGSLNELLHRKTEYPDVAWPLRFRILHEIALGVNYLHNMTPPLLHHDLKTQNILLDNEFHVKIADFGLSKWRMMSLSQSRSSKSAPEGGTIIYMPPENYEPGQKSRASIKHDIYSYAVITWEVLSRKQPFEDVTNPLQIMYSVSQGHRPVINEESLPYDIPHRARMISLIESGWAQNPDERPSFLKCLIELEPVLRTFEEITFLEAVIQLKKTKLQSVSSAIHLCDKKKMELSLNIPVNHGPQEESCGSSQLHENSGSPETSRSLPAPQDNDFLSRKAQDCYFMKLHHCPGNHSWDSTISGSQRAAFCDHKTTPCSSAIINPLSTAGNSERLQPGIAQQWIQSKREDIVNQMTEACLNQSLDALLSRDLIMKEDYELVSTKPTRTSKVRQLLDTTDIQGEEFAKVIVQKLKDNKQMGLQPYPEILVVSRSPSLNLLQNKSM

[26] = molecular target: T25, ERBB2 (Homo sapiens, UniProt P04626); test: KINOMEscan; format: binding; conditions: read-out: %Ctrl @ 1000 nM
T25 construct: purchased DiscoveRx KINOMEscan

[27] = molecular target: T26, STK39 (Homo sapiens, UniProt Q9UEW8); test: KINOMEscan; format: binding; conditions: read-out: %Ctrl @ 1000 nM
T26 construct: purchased DiscoveRx KINOMEscan

[28] = molecular target: T27, CAMK1D (Homo sapiens, UniProt Q8IU85); test: KINOMEscan; format: binding; conditions: read-out: %Ctrl @ 1000 nM
T27 construct: purchased DiscoveRx KINOMEscan

[29] = molecular target: T28, STK36 (Homo sapiens, UniProt Q9NRP7); test: KINOMEscan; format: binding; conditions: read-out: %Ctrl @ 1000 nM
T28 construct: purchased DiscoveRx KINOMEscan

[30] = molecular target: T29, MUSK (Homo sapiens, UniProt O15146); test: KINOMEscan; format: binding; conditions: read-out: %Ctrl @ 1000 nM
T29 construct: purchased DiscoveRx KINOMEscan

[31] = molecular target: T30, BRAF (Homo sapiens, UniProt P15056); test: KINOMEscan; format: binding; conditions: read-out: %Ctrl @ 1000 nM
T30 construct: purchased DiscoveRx KINOMEscan

[32] = molecular target: T31, SRPK2 (Homo sapiens, UniProt P78362); test: KINOMEscan; format: binding; conditions: read-out: %Ctrl @ 1000 nM
T31 construct: purchased DiscoveRx KINOMEscan

[33] = molecular target: T32, RPS6KA4(Kin.Dom.1-N-terminal) (Homo sapiens, UniProt O75676); test: KINOMEscan; format: binding; conditions: read-out: %Ctrl @ 1000 nM
T32 construct: RPS6KA4(Kin.Dom.1-N-terminal); purchased DiscoveRx KINOMEscan
T32 sequence (O75676 33-371 limits assumed): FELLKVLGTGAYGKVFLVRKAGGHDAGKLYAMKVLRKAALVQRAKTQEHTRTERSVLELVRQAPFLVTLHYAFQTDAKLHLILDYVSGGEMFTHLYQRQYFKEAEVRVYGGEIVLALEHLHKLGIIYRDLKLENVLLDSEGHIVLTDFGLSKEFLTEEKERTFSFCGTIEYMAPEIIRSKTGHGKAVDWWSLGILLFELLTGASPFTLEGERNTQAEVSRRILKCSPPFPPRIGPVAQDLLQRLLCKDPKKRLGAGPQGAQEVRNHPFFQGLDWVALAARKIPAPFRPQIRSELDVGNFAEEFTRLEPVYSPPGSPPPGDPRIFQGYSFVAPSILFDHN

[34] = molecular target: T33, CSF1R-autoinhibited (Homo sapiens, UniProt P07333); test: KINOMEscan; format: binding; conditions: read-out: %Ctrl @ 1000 nM
T33 construct: purchased DiscoveRx KINOMEscan

[35] = molecular target: T34, STK35 (Homo sapiens, UniProt Q8TDR2); test: KINOMEscan; format: binding; conditions: read-out: %Ctrl @ 1000 nM
T34 construct: purchased DiscoveRx KINOMEscan

[36] = molecular target: T35, ERBB4 (Homo sapiens, UniProt Q15303); test: KINOMEscan; format: binding; conditions: read-out: %Ctrl @ 1000 nM
T35 construct: purchased DiscoveRx KINOMEscan

[37] = molecular target: T36, PRKG1 (Homo sapiens, UniProt Q13976); test: KINOMEscan; format: binding; conditions: read-out: %Ctrl @ 1000 nM
T36 construct: purchased DiscoveRx KINOMEscan

[38] = molecular target: T37, YANK1 (Homo sapiens, UniProt Q8WU08); test: KINOMEscan; format: binding; conditions: read-out: %Ctrl @ 1000 nM
T37 construct: purchased DiscoveRx KINOMEscan

[39] = molecular target: T38, ABL1-nonphosphorylated (Homo sapiens, UniProt P00519); test: KINOMEscan; format: binding; conditions: read-out: %Ctrl @ 1000 nM
T38 construct: purchased DiscoveRx

[40] = molecular target: T39, FLT4 (Homo sapiens, UniProt P35916); test: KINOMEscan; format: binding; conditions: read-out: %Ctrl @ 1000 nM
T39 construct: purchased DiscoveRx KINOMEscan

[41] = molecular target: T40, JNK3 (Homo sapiens, UniProt P53779); test: KINOMEscan; format: binding; conditions: read-out: %Ctrl @ 1000 nM
T40 construct: purchased DiscoveRx KINOMEscan

[42] = molecular target: T41, SBK1 (Homo sapiens, UniProt Q52WX2); test: KINOMEscan; format: binding; conditions: read-out: %Ctrl @ 1000 nM
T41 construct: purchased DiscoveRx KINOMEscan

[43] = molecular target: T42, PRKX (Homo sapiens, UniProt P51817); test: KINOMEscan; format: binding; conditions: read-out: %Ctrl @ 1000 nM
T42 construct: purchased DiscoveRx KINOMEscan
T42 sequence (P51817 whole entry): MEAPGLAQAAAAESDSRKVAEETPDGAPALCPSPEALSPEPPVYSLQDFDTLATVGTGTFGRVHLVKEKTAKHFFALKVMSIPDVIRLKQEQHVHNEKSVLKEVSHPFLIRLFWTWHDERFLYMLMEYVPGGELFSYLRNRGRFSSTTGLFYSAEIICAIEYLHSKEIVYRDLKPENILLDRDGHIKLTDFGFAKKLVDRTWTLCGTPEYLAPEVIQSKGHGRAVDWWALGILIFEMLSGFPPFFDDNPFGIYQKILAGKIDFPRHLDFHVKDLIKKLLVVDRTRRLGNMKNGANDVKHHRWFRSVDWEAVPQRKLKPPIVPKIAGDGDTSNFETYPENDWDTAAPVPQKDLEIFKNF

## CCN(C(=O)CO)[C@H]1CN(/C(=N\C#N)Nc2cccc(OC(F)F)c2)N=C1c1ccc(Cl)c(Cl)c1 [(S)-4]
[1]
  remaining binding at 1 µM: 97%
[2]
  remaining binding at 1 µM: 61%
[3]
  remaining binding at 1 µM: 99%
[4]
  remaining binding at 1 µM: 100%
[5]
  remaining binding at 1 µM: 83%
[6]
  remaining binding at 1 µM: 93%
[7]
  remaining binding at 1 µM: 78%
[8]
  remaining binding at 1 µM: 100%
[9]
  remaining binding at 1 µM: 69%
[10]
  remaining binding at 1 µM: 100%
[11]
  remaining binding at 1 µM: 82%
[12]
  remaining binding at 1 µM: 74%
[13]
  remaining binding at 1 µM: 100%
[14]
  remaining binding at 1 µM: 91%
[15]
  remaining binding at 1 µM: 82%
[16]
  Endogenous p53 methylation: significant reduction of methylation
[17]
  remaining binding at 1 µM: 100%
[18]
  remaining binding at 1 µM: 78%
[19]
  remaining binding at 1 µM: 100%
[20]
  remaining binding at 1 µM: 100%
[21]
  remaining binding at 1 µM: 100%
[22]
  remaining binding at 1 µM: 100%
[23]
  remaining binding at 1 µM: 98%
[24]
  remaining binding at 1 µM: 100%
[25]
  remaining binding at 1 µM: 75%
[26]
  remaining binding at 1 µM: 87%
[27]
  remaining binding at 1 µM: 77%
[28]
  remaining binding at 1 µM: 90%
[29]
  remaining binding at 1 µM: 81%
[30]
  remaining binding at 1 µM: 97%
[31]
  remaining binding at 1 µM: 100%
[32]
  remaining binding at 1 µM: 95%
[33]
  remaining binding at 1 µM: 100%
[34]
  remaining binding at 1 µM: 47%
[35]
  remaining binding at 1 µM: 100%
[36]
  remaining binding at 1 µM: 93%
[37]
  remaining binding at 1 µM: 100%
[38]
  remaining binding at 1 µM: 77%
[39]
  remaining binding at 1 µM: 79%
[40]
  remaining binding at 1 µM: 87%
[41]
  remaining binding at 1 µM: 100%
[42]
  remaining binding at 1 µM: 88%
[43]
  remaining binding at 1 µM: 100%
